Assay results published in US20070208087A1, “Compounds, compositions and methods for the treatment of inflammatory diseases” (priority 2001, published 2007).
Values joined by “and” are separate entries in the source; they are usually repeats but may differ in a detail not shown here. Equal entries are not always repeated. Where two headings read alike, the source gives them in different places.

Experiments:
[1] = test system: TNF-α release from microglia; experiment: TNF-α release from LPS/IFNγ stimulated microglia, TNF-α ELISA (Example 11); assay type: cell-based; settings: 50 uM compound, TNF-α release, 10 ug LPS and 10 ng IFNγ, 24 hours; for % inhibition: individual replicates, 50 µM; for inhibition at 50 µM: Microglia, 24 h, read-out: Avg % Inhibition
Outline: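 Microglia pretreated 1 h with 50 μM bis-/tris-dihydroxyaryl compound, then stimulated with 10 μg/ml LPS + 10 ng/ml IFNγ for 24 h. Medium sampled, stored at −80°, diluted 1:50 and TNF-α measured by ELISA.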

[2] = test system: EOC 13.31 microglial cells; experiment: NO release inhibition screen in LPS/IFNγ stimulated microglia, Griess reaction at 48 hours (Example 7); assay type: cell-based; settings: for inhibition at 50 µM: Microglia, 48 h
Outline: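 EOC 13.31 microglia, confluent at 24 h, stimulated with 10 μg/ml LPS plus 10 ng/ml IFNγ in presence of 50 uM test compound. Nitric oxide release quantified by Griess reaction at 48 hours.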

SMILES	% inhibition [1]	inhibition at 50 µM [1] [%]	μM NO release Avg ([2]; 50 uM + 10 μg/ml LPS/10 ng/ml IFNγ, 48 hours) [µM]	% inhibition ([2]; 50 uM + 10 μg/ml LPS/10 ng/ml IFNγ, 48 hours, single replicates, 50 µM)	inhibition of NO release, in words ([2]; 50 uM, LPS/IFNγ stimulated microglia)	inhibition at 50 µM ([2]; 50 uM + 10 μg/ml LPS/10 ng/ml IFNγ, 48 hours, read-out: Avg. % Inhibition) [%]	inhibition at 50 µM ([2]; 50 uM + 10 μg/ml LPS/10 ng/ml IFNγ, 48 hours, single replicates, read-out: % inhibition) [%]
O=C(N[C@@H]1CCCC[C@H]1NC(=O)c1ccc(O)c(O)c1)c1ccc(O)c(O)c1 (relative stereo) [Compound 26, N,N′-bis(3,4-dihydroxybenzoyl)-trans-1,2-diaminocyclohexane]	−12.44% and −21.81% and −16.22%	-16.8					
Oc1ccc(CNCc2ccc(O)c(O)c2)cc1O [Compound 73, bis(3,4-dihydroxybenzyl)amine]	−51.44% and −31.47% and −54.79%	-45.9	2.301	83.62% and 94.98%	effective inhibitors of NO release	91.7	96.5
